Assay type in all cases: cell-based, rat
Assay [1] relates to islets. In words: Glucose-stimulated proliferation in islets (DNA content). As to the method: Others have shown that islet mass can increase by as much as 50% in just 96 hours of glucose infusion in vivo, an effect that results from increases in both cell size and cell number^15. Given that metabolism of glucose alone promotes secretion from β cells, we tested the hypothesis that glucose-stimulated proliferation in islets involves the activation of GABAB receptors by GABA released during glucose application. Islets were exposed to 5.6 mM glucose (a maximal proliferative stimulus in human islets) for 4.75 hours in the presence or absence of 2OH-saclofen or the GBR1 N-terminal antibody. Glucose promoted a small, but significant, 7±1% stimulation of control islets during this time (FIG. 5A).

In assay [2] the test system is islets. In words: Islet total DNA content, Cyquant fluorescence assay. How it is done:
To examine the potential function of GABAB receptor signaling in islet tissue, islets were enzymatically isolated from exocrine pancreas and studied in vitro. Islets were size-selected for these studies because of our observation that small islets (<150 μm diameter) express GABAB receptors more abundantly. Islets (equivalent to ˜10,000 cells per well of a 96 well culture plate) were incubated for 45 minutes with (or without) 100 μM GABA, washed once with growth medium M199, maintained for 4 hours at 37° C., and subsequently analyzed for total DNA content using a Cyquant (Molecular Probes) fluorescence assay. […] Large islets, by contrast, were much less responsive to GABA; increasing only by 15±4.5% in the same time period. The growth-promoting effect of GABA was mimicked by the selective GABAB receptor agonist, S-baclofen and inhibited with either 2OH-saclofen (a selective inhibitor of GABAB receptors) or the N-terminal antibody to the GABAB receptor (FIG. 4A).
To further evaluate the interactions between glucose and GABAB receptor activation, we measured GABA-mediated proliferation over a range of glucose concentrations.

In assay [3] the test system is islets. In words: BrdU labeling of dividing islet cells. As to conditions: 4.75 hours; GABA-treated versus control islets. As to the method:
To identify which cells in islets underlie the increase in DNA synthesis, cells treated with GABA were exposed to BrdU, to label the dividing cells, and compared to control cells. […] Given the brief incorporation period (4 hours following GABA exposure), such profiles imply that the responsive cells are likely to be synchronized in S phase.
A general note: Dividing cells build labelled thymidine or BrdU into new DNA.

In assay [4] the test system is islets. The experiment in a line: [3H]thymidine incorporation in islets. As to conditions: label present throughout the 4.75 hour experimental period. As to the method: [^3H]thymidine incorporation was employed as an alternative assay for DNA synthesis, with similar results to those of the fluorescence assay. The labeled nucleotide was added to the culture medium and was present throughout the 4.75 hour experimental period. GABA, and the agonist baclofen, acting via GABAB receptors produced a respective 143±19% and 115±4% increase in [^3H]thymidine incorporation (FIG. 4B).

Another assay relates to spleen cells. The experiment in a line: DNA content of dissociated cultured spleen, Cyquant assay. As to conditions: 100 micromolar for 45 minutes, then four hours in fresh medium at 37°. As to the method: An experiment to test the ability of GABA and the GABAB receptor agonist to stimulate growth of other tissues was undertaken. Rat spleen was mechanically dissociated in trypsin, washed, and plated identical to the experiments using rat islets, described above. The dissociated tissue was cultured in the presence of 100 micromolar GABA or baclofen for 45 minutes and compared to cultured but untreated dissociated spleen. After 45 minutes the media was changed and the tissue incubated in fresh medium for four hours at 37°. DNA measurements were made by the Cyquant assay by Molecular Probes.

Take `OC[C@H]1OC(O)[C@H](O)[C@@H](O)[C@@H]1O` (stereo partly shown) [Glucose]: in the assay on islets [1] (5.6 mM glucose for 4.75 hours), the “stimulation of control islets (DNA)” value worked out at 7±1%.

For `NCC(O)(CS(=O)(=O)O)c1ccc(Cl)cc1` (stereo not shown) [2OH-saclofen, reference compound], the “DNA, % of DNA content measured at the beginning of the incubation period” value with islets [1] (5.6 mM glucose for 4.75 hours in the presence of 2OH-saclofen) turned out to be 92±4%. Moreover, in the assay on islets [2] (isolated islets with GABA, FIG. 4A, 100 μM antagonist or antibody 1:1000), the “effect on growth-promoting effect of GABA” value is given as “inhibited”.

`NC[C@@H](CC(=O)O)c1ccc(Cl)cc1` [S-baclofen, reference compound]: in the assay on islets [2] (isolated islets, FIG. 4A, 100 μM), the “growth-promoting effect of GABA mimicked by agonist” value is reported as “mimicked”.

On to `NCCCC(=O)O` [GABA, 4-aminobutanoic acid], for which, in the assay on islets [3], the BrdU incorporation entry is “detectable BrdU incorporation”. Moreover, the “increase in [3H]thymidine incorporation” value with islets [4] is recorded as 143±19%. Besides, the “DNA content of cultured spleen cells versus untreated” value with spleen cells is listed as “promoted an increase in the DNA content”. Also, the “GABA-stimulated DNA synthesis at moderate glucose” value in the assay with islets [2] (45 min exposure to 100 μM GABA, 5.6 mM glucose) was “peaked at moderate glucose concentrations”. Also, the “GABA-stimulated DNA synthesis at higher glucose” value in the assay with islets [2] (45 min exposure to 100 μM GABA, 16.7 mM glucose) is recorded as “suppressed the stimulatory effect of GABA”. Moreover, in the assay with islets [2] (large islets, 100 μM GABA 45 minutes, same 4.75 hour period), the “increase in DNA synthesis, large islets” value is recorded as 15±4.5%. For the same molecule, the “increase in DNA synthesis, small islets” value in the assay on islets [2] (small islets (<150 μm diameter), 100 μM GABA 45 minutes, then 4 hours at 37° C., 4.75 hours total) came to 45%.

As to `NCC(CC(=O)O)c1ccc(Cl)cc1` (stereo not shown) [baclofen, 4-amino-3-(4-chlorophenyl)butanoic acid, reference compound], the “increase in [3H]thymidine incorporation” value with islets [4] came to 115±4%. For the same molecule, the “DNA content of cultured spleen cells versus untreated” value with spleen cells is given as “promoted an increase in the DNA content”.
